Measured values reported in US12161689B2, “Anti-infective formulations” (NEW MEXICO TECH UNIVERSITY RESEARCH PARK CORPORATION, priority 2018, dated 2024).
Where a SMILES comes first, the peptide text is derived from it. Bridges are numbered along the chain shown (N, C = ends). [ ]: non-standard residue; d: D form. The star is where a group is joined. Ileψ(thiazoline)Cys = CC[C@H](C)[C@H](N)C1=N[C@H](C(=O)*)CS1; dOrn = NCCC[C@@H](N)C(=O)O

System: multi-drug resistant Burkholderia cepacia (ATCC 10856)
Experiment: Spot on lawn, MHA plate: killing / diameter of clearance
Assay type: cell-based
Conditions: 10 μL spot, 24 to 48 hours at 37° C.

For `CC[C@H](C)[C@H](N)C1=N[C@H](C(=O)N[C@@H](CC(C)C)C(=O)N[C@H](CCC(=O)O)C(=O)N[C@H](C(=O)N[C@H]2CCCCNC(=O)[C@H](CC(N)=O)NC(=O)[C@@H](CC(=O)O)NC(=O)[C@H](Cc3cnc[nH]3)NC(=O)[C@@H](Cc3ccccc3)NC(=O)[C@H]([C@@H](C)CC)NC(=O)[C@@H](CCCN)NC2=O)[C@@H](C)CC)CS1` [Bacitracin] ({Ileψ(thiazoline)Cys}-L[dE]IK[dOrn]I[dF]H[dD]N; lactam 4-C), the antibacterial activity (B. cepacia (ATCC 10856)) was “−” and the antibacterial activity (Burkholderia cepacia ATCC 10856) was “−”.
